Experimental data published in patent US20160082036A1, “HYDROXYALKYL STARCH FOR THE TREATMENT OF CANCERS BY REDUCTION OF TUMOR GROWTH RATES” (Fresenius Kabi Deutschland GmbH, priority 2012, published 2016).

Key:
[1] = Example 2: body weight and blood parameters of MT-3 tumor-bearing mice; format: in vivo, NMRI:nu/nu mice
Description: Summary: Mice were either treated with a single i.v. injection of docetaxel (Taxotere®) at a dose of 25 mg/kg or with the plasma expander Voluven® (20 ml/kg) or with HES 100/1.0 (approx. 740 mg/kg) dissolved in saline/EtOH to determine tumor growth and body weight over the course of the experiment.
(§1) Adult female NMRI:nu/nu mice (TACONIC Europe, Lille Skensved, Denmark) bred in the own (EPO) colony were used throughout the study.
(§2) The application volume was 10 ml/kg (approx. 200 μl/20 g mouse) mouse body weight for vehicle, HES 100/1.0 and docetaxel and 20 ml/kg for Voluven®. The route of administration was by intravenous (i.v.) injection into the tail vein.
(§3) Individual body weights of mice were determined two times weekly and mean body weight per treatment group.
(§4) Blood samples were drawn from the retro-orbital sinus under iso-flurane anaesthesia three days after the treatment. Blood samples of 50-100 μl were taken into tubes prepared with EDTA for haematological parameters from a subset of each group (generally 30-50%). The following parameters were determined: total leucocyte count (WBC), erythrocyte count (RBC), haemoglobin (HGB), haematocrit (HCT), mean corpuscular volume (MCV), mean corpuscular haemoglobin (MCH), mean corpuscular haemoglobin concentration (MCHC) and platelet count (PLT) using a Coulter Counter instrument.
(§5) Statistical evaluation of was performed with the U-test of Mann and Whitney using the Windows program […] 6. A significance level of p<0.05 was used.

[2] = set-up: species or system NMRI:nu/nu mice; settings: mouse, in vivo
Description: (§6) Hydroxyethyl starch compounds were obtained from Fresenius Kabi Deutschland GmbH on Dec. 7, 2012 and were stored at room temperature until use. The compounds each were dissolved in saline to obtain 10% w/v solutions. The application was 400 μl/20 g mouse body weight for saline and HES solutions, while Docetaxel was given in a volume of 10 ml/kg as slow bolus. The route of administration was intravenously for all mice.
(§7) Adult female NMRI:nu/nu mice (TACONIC Europe, Lille Skensved, Denmark) bred in the own (EPO) colony were used throughout the study. At the start of experiment they were 6-8 weeks of age.
(§8) In study 3 mice were sacrificed when the tumor size reached more than 1.5 cm^3, or the tumors ulcereted. Study 3 was finished when the mean TV was in most groups larger than 1.0 cm^3.
On the day of necropsy mice were sacrificed by cervical dislocation and inspected for gross organ changes.

[3] = test system: human breast cell carcinoma line MT-3; assay: Example 5: MT-3 xenograft tumor growth, three studies with different HES types; format: in vivo
Description: In another set of three studies which were performed in analogy to the studies described above in Examples 1 and 2, more different HES types have been analysed in the same setting using the MT3 cell line mouse model.
Docetaxel (Taxotere®) was obtained from Sanofi-Aventis Deutschland GmbH, (Lot CHB D9C895; Berlin, Germany) and was stored in the dark at −20° C. until use. The injection solution was prepared immediately before use by dissolving in saline solution.
as §6, §7
The MT-3 cell line was used for subcutaneous (s.c.) xenotransplantation in immune deficient female NMRI:nu/nu mice. The MT-3 breast carcinoma cell line was obtained from the tumour bank of the National Cancer Institute of the former USSR, WONZ, Moscow.
The cells are cryo-preserved. Cells were thawed, expanded by in vitro culture and transplanted s.c. as cell suspension in female NMRI:nu/nu mice.
The number of 5×10^6 tumour cells was transplanted s.c into the flank of each mouse. The animals were monitored for tumour growth and when tumours were palpable, generally between day 7 and day 10 after transplantation, mice were randomised into the treatment groups with 15 mice each. Day 0 is defined as the day of first treatment.
Individual tumour diameters were measured twice weekly with a calliper-like instrument. Tumour volumes were calculated according to V=(length×(width)^2)/2. […] The relative tumour volume (RTV) and the treated to control (T/C RTV) values in percent were calculated for each measurement day in relation to V values at day 0.
as §8
Mice were treated with i.v. injection of Docetaxel (Taxotere®) at day 0 and 14 at a dose of 40 mg/kg and with the hydroxyethyl starch compounds (20 ml/kg) once weekly.
In study 1 all mice developed tumours after s.c. transplantation of 5×10^6 MT-3 cells up to a size of 0.046±0.015 cm^3 within 7 days. Mice were treated intravenously with a dose of 40 mg/kg Docetaxel (Taxotere®) at days 0 and 14, whereas four different HES specifications in saline (containing each 10% w/v) were injected in a volume of 20 ml/kg i.v. weekly (day 0, 7, 14). Saline was injected once a week (20 ml/kg). All groups were treated during the whole experimental period accordingly to the planned schedule. The tumour of control mice in study 1 grew up to a volume of 1.1±0.6 cm^3.
In study 2 all mice developed tumours after s.c. transplantation of 5×10^6 MT-3 cells up to a size of 0.081±0.033 cm^3 within 9 days. Mice were treated intravenously with a dose of 40 mg/kg docetaxel at days 0 and 14, whereas four different HES specifications in saline (containing each 10% w/v) were injected in a volume of 20 ml/kg i.v. weekly (day 0, 7, 14). Saline was injected once per week (20 ml/kg). All groups were treated during the whole experimental period accordingly to the planned schedule. The tumour of control mice grew up until day 18 to a volume of 1.48±1.04 cm^3.
In study 3 all mice developed tumours after s.c. transplantation of 5×10^6 MT-3 cells up to a size of 0.059±0.018 cm3 within 7 days. […]

[4] = Example 1: body weight and blood parameters of MT-3 tumor-bearing mice; format: in vivo, NMRI:nu/nu mice
Description: Summary: Mice were either treated with a single i.v. injection of docetaxel (Taxotere®) at a dose of 25 mg/kg or with the plasma expander Voluven® (20 ml/kg) or with “HES 100/1.0” (approx. 740 mg/kg) dissolved in saline to determine tumor growth and body weight over the course of the experiment.
as §1, §2, §3, §4, §5

[5] = blood drawn three days after single i.v. treatment

CC(=O)O[C@@]12CO[C@@H]1C[C@H](O)[C@@]1(C)C(=O)[C@H](O)C3=C(C)[C@@H](OC(=O)[C@H](O)[C@@H](NC(=O)OC(C)(C)C)c4ccccc4)C[C@@](O)([C@@H](OC(=O)c4ccccc4)[C@H]21)C3(C)C [Docetaxel]
body weight development (in words) ([1]; after single i.v. treatment, FIG. 1): Body weight loss | Platelets × 10^6 at day 11 [1, 5]: 1500 ± 156 × 10^6 | WBC × 10^6 at day 11 [1, 5]: 4.80 ± 0.58 × 10^6 | body weight (in words) [2]: moderate body weight loss | general toxicity, clinical sign (in words) ([2]; iv): apathy | tumour growth inhibition effect (in words) ([3]; studies 1 to 3, compared to saline control, FIGS. 7, 9, 11): strong inhibitory effect on tumour growth | RTV T/C ([3]; study 1): 14.4% | inhibition of tumour growth ([3]; study 1): more than 85% | RTV T/C ([3]; study 2): 16.9% | inhibition of tumour growth ([3]; study 2): 83% | RTV T/C ([3]; study 3, at day 7): 8.8% | inhibition of tumour growth ([3]; study 3, at day 7): 91% | body weight development (in words) ([4]; after single i.v. treatment, FIG. 3): Body weight loss | leucopenia (in words) ([4]; after single i.v. treatment, table 5): slight but significant leucopoenia | Platelets × 10^6 at day 10 [4, 5]: 1418 ± 85 × 10^6 | WBC × 10^6 at day 10 [4, 5]: 3.09 ± 0.76 × 10^6 | effect on platelet counts (in words) ([4]; compared to saline+EtOH treated group): no significant effect on the platelet counts
